Measured values reported in patent US20260374818A1, “CATIONIC PEPTIDES WITH BROAD SPECTRUM ACTIVITY” (priority 2023, published 2026).
In brackets after ≈: the same amount, converted by molar mass. Where a SMILES comes first, the peptide text is derived from it. [ ]: non-standard residue; d: D form.

What was measured:
[1] = system: MRSA biofilms (USA300 LAC); conditions: SPOT peptides
[2] = system: P. aeruginosa PAO1 biofilms; conditions: P. aeruginosa PAO1 biofilms; >95% pure peptides; crystal violet; BM2 minimal media
[3] = Subdermal murine toxicity model; conditions: for Average cyst size compared to DJK-5: 16 hours after administration, 4 mg/kg; for Clinical score: 1 hour after subcutaneous administration, comparator DJK-5
Method: FIGS. 14A-14B show murine subdermal toxicity assessment of AB103-D derived peptides. Clinical scores were recorded for each peptide treated mouse one hour after peptide administration (FIG. 14A). […] The presence of a cyst or lesion was recorded 16 hours after peptide administration and the size of the cyst was measured using calipers (FIG. 14B). Data shown are the mean of two independent replicates at a peptide dose of 4 mg/kg.
Subdermal murine toxicity model: A subdermal toxicity mouse model was used to evaluate whether peptides induced localized toxicity of treated cutaneous tissue. Mice were anesthetized with 2.5-3% isoflurane and their fur was removed by shaving followed by application of a chemical depilatory. […] Mice were visually assessed and received clinical scores for a battery of signs or symptoms (activity/behaviour change, appearance/grooming, hydration, pain, cyst formation), for which a score of zero was given to animals that appeared normal. Animals were weighed and clinical scores were totalled. Following an overnight (16 h) incubation, mice were scored and weighed then euthanized with CO2 followed by cervical dislocation. Mice were imaged and cysts (swollen, inflamed tissue) were measured using a caliper. Animal experiments were performed in accordance with the Canadian Council on Animal Care (CCAC) guidelines and were approved by the University of British Columbia Animal Care Committee. Female CD-1 mice were purchased from Charles River Laboratories, Inc. (Wilmington, MA). All mice were 8 weeks of age and weighed 25±5 g at the time of the experiment. Animals were group housed in cohorts of three to four littermates. Standard animal husbandry practices were employed.

[4] = system: P. aeruginosa PAO1 biofilms; experiment: Biofilm inhibition by SPOT-synthesized AB103-D variants (crystal violet), P. aeruginosa; type: cell-based, Pseudomonas aeruginosa; conditions: P. aeruginosa PAO1, SPOT peptides
[5] = system: MRSA USA300 biofilms; experiment: Biofilm inhibition by >95% pure peptides (crystal violet), MRSA; type: cell-based, methicillin resistant Staphylococcus aureus; conditions: MRSA USA300 biofilms, >95% pure peptides, 10% TSB + 0.1% glucose
[6] = Peptide aggregation in RPMI + 10% FBS with PBMCs (microscopy); type: physicochemical; conditions: 50 μg/ml, overnight
Method: Peptide Aggregation: Peptide aggregation was assessed qualitatively by examining samples of peptides mixed with PBMCs following overnight incubation at 37 °C and 5% CO2. All samples were prepared in RPMI media containing 10% FBS the same manner as the cytotoxicity assays described above. Visualization of aggregates was done using a Nikon Eclipse TS100 Inverted Microscope at 10× magnification.
In aggregation studies, peptides were added to PBMCs in RPMI media containing 10% FBS and incubated overnight at 37 °C in 5% CO2.
The peptides were also evaluated for their tendency to aggregate when added to RPMI tissue culture media containing 10% fetal bovine serum in the presence of PBMCs. Peptides were added to PBMCs in RPMI media containing 10% FBS and incubated overnight at 37 °C in 5% CO2. […] Compared to a highly aggregation prone peptide, 1018 [Haney, E. F., et al. (2017). Aggregation and its influence on the immunomodulatory activity of synthetic innate defense regulator peptides.
As with the DJK-5 derivatives above, the AB103-D derivatives were evaluated for their tendency to aggregate when added to RPMI tissue culture media containing 10% fetal bovine serum in the presence of PBMCs. Peptides were added to PBMCs in RPMI media containing 10% FBS and incubated overnight at 37 °C in 5% CO2.

[7] = system: P. aeruginosa PAO1; experiment: MIC (broth microdilution) of peptides, P. aeruginosa; type: cell-based, Pseudomonas aeruginosa; conditions: mode of three biological replicates
Method: (§1) Minimal inhibitory concentration (MIC) against planktonic bacteria: The MIC of the synthetic peptides was determined in Mueller-Hinton broth (MHB) using the broth microdilution method described previously [Wiegand, I., Hilpert, K., & Hancock, R. E. (2008). Agar and broth dilution methods to determine the minimal inhibitory concentration (MIC) of antimicrobial substances. Nature Protocols, 3(2), 163-175]. Briefly, 10 μl of a 10× concentrated peptide solution was placed in the bottom of a well in a 96-well polypropylene round bottom plate (Corning Inc.). A bacterial suspension of ~5×10^5 CFU/ml was prepared from an overnight culture and 90 μl of this was added to each well. […] Bacteria tested included P. aeruginosa PAO1, MRSA USA300 LAC, Staphylococcus haemolyticus, Staphylococcus epidermidis, Klebsiella pneumoniae and Streptococcus salivarius.
(§2) Finally, the AB103-D derivatives that were the least aggregation prone and which produced the lowest toxic effects in vivo were evaluated for their direct antibacterial activity towards several pathogens of clinical relevance using a standard minimum inhibitory concentration (MIC) assay [Wiegand, I., Hilpert, K., & Hancock, R. E. (2008). Agar and broth dilution methods to determine the minimal inhibitory concentration (MIC) of antimicrobial substances. Nature Protocols, 3(2), 163-175]. Specifically, peptides AB110-D, AB111-D, AB114-D and AB115-D were tested against P. aeruginosa PAO1, MRSA USA 300, Staphylococcus haemolyticus, Staphylococcus epidermidis, Klebsiella pneumoniae and Streptococcus salivarius and compared against the antibacterial activity of DJK-5 and AB103-D (Table 7). Overall, the antibacterial potency of all of the AB103-D derivatives was stronger than that seen for DJK-5, particularly in the case of the Gram-negative pathogens P. aeruginosa and K. pneumoniae. […]

[8] = system: MRSA USA 300; experiment: MIC (broth microdilution) of peptides, MRSA; type: cell-based, methicillin resistant Staphylococcus aureus; conditions: MRSA USA300; mode of three biological replicates
Method: as §1, §2

[9] = system: Klebsiella pneumoniae; experiment: MIC (broth microdilution) of peptides, K. pneumoniae; type: cell-based; conditions: mode of three biological replicates
Method: as §1, §2

[10] = system: Staphylococcus epidermidis; experiment: MIC (broth microdilution) of peptides, S. epidermidis; type: cell-based; conditions: mode of three biological replicates
Method: as §1, §2

[11] = system: Streptococcus salivarius; experiment: MIC (broth microdilution) of peptides, S. salivarius; type: cell-based; conditions: mode of three biological replicates
Method: as §1, §2

[12] = system: Staphylococcus haemolyticus; experiment: MIC (broth microdilution) of peptides, S. haemolyticus; type: cell-based; conditions: mode of three biological replicates
Method: as §1, §2

Compound: CC[C@@H](C)[C@@H](NC(=O)[C@H](NC(=O)[C@@H](CCCNC(=N)N)NC(=O)[C@H](NC(=O)[C@@H](CCCNC(=N)N)NC(=O)[C@H](NC(=O)[C@H](NC(=O)[C@@H](CCCNC(=N)N)NC(=O)[C@@H](Cc1c[nH]c2ccccc12)NC(=O)[C@@H](CCC(N)=O)NC(=O)[C@H](N)C(C)C)C(C)C)[C@H](C)CC)C(C)C)C(C)C)C(=O)N[C@H](CCCNC(=N)N)C(N)=O [AB108-D, vqwrvirvrvir-NH2] (H-[dV][dQ][dW][dR][dV][dI][dR][dV][dR][dV][dI][dR]-NH2)
- Biofilm inhibitory activity compared to DJK5 ([1]; MRSA, three concentrations (FIG. 1)): only slightly lower than the DJK5 sample

Compound: CC[C@@H](C)[C@@H](NC(=O)[C@@H](C)NC(=O)[C@@H](CCCNC(=N)N)NC(=O)[C@@H](Cc1c[nH]c2ccccc12)NC(=O)[C@@H](CCC(N)=O)NC(=O)[C@H](NC(=O)[C@@H](CCCNC(=N)N)NC(=O)[C@H](NC(=O)[C@H](NC(=O)[C@H](NC(=O)[C@H](NC(=O)[C@H](N)CCCNC(=N)N)C(C)C)[C@H](C)CC)C(C)C)[C@H](C)CC)C(C)C)C(N)=O [AB116-D, rvivirvqwrai] (H-[dR][dV][dI][dV][dI][dR][dV][dQ][dW][dR][dA][dI]-NH2)
- minimum inhibitory concentration of peptide that inhibited at least 90% of biofilm growth (MBIC90) [2]: >16 µM
- Average cyst size compared to DJK-5 [3]: smaller than those induced by DJK-5
- Activity against PAO1 biofilms compared to AB103-D [4]: activity superior to that of AB103-D
- minimum inhibitory concentration of peptide that inhibited at least 90% of biofilm growth (MBIC90) [5]: 1 µM

Compound: CC[C@@H](C)[C@@H](NC(=O)[C@@H](C)NC(=O)[C@@H](CCCNC(=N)N)NC(=O)[C@@H](Cc1c[nH]c2ccccc12)NC(=O)[C@@H](CCC(N)=O)NC(=O)[C@H](NC(=O)[C@@H](CCCNC(=N)N)NC(=O)[C@H](NC(=O)[C@H](NC(=O)[C@@H](CCCNC(=N)N)NC(=O)[C@H](NC(=O)[C@H](N)CCCCN)C(C)C)C(C)C)[C@H](C)CC)C(C)C)C(N)=O [AB117-D, kvrvirvqwrai] (H-[dK][dV][dR][dV][dI][dR][dV][dQ][dW][dR][dA][dI]-NH2)
- minimum inhibitory concentration of peptide that inhibited at least 90% of biofilm growth (MBIC90) [2]: 8 µM
- Clinical score [3]: < 2
- Better activity vs. MRSA cf. AB103-D ([1]; MRSA biofilms): ~2 fold
- Peptide aggregation [6]: slightly
- Activity against PAO1 biofilms compared to AB103-D [4]: activity superior to that of AB103-D
- minimum inhibitory concentration of peptide that inhibited at least 90% of biofilm growth (MBIC90) [5]: 0.5 µM

Compound: CC[C@@H](C)[C@@H](NC(=O)[C@@H](C)NC(=O)[C@@H](CCCNC(=N)N)NC(=O)[C@@H](CC(C)C)NC(=O)[C@@H](CCC(N)=O)NC(=O)[C@H](NC(=O)[C@@H](CCCNC(=N)N)NC(=O)[C@H](NC(=O)[C@H](NC(=O)[C@@H](CCCNC(=N)N)NC(=O)[C@H](NC(=O)[C@H](N)CCCNC(=N)N)C(C)C)C(C)C)[C@H](C)CC)C(C)C)C(N)=O [AB115-D, rvrvirvqlrai] (H-[dR][dV][dR][dV][dI][dR][dV][dQ][dL][dR][dA][dI]-NH2)
- MIC [7]: 2 µg/mL (≈ 1.35 µM)
- minimum inhibitory concentration of peptide that inhibited at least 90% of biofilm growth (MBIC90) [2]: 8 µM
- MIC [8]: 0.8 µg/mL (≈ 0.541 µM)
- Clinical score [3]: < 2
- Average cyst size compared to DJK-5 [3]: smaller than those induced by DJK-5
- MIC [9]: 0.8 µg/mL (≈ 0.541 µM)
- minimum inhibitory concentration of peptide that inhibited at least 90% of biofilm growth (MBIC90) [5]: 1 µM
- MIC [10]: 0.8 µg/mL (≈ 0.541 µM)
- MIC [11]: 0.8 µg/mL (≈ 0.541 µM)
- MIC [12]: 0.8 µg/mL (≈ 0.541 µM)
